Results published in patent US20240180972A1, “HUMAN PLURIPOTENT STEM CELL-DERIVED SECRETOME AS A BIOLOGIC FOR PREVENTION AND TREATMENT OF NEURODEGENERATIVE AND APOPTOTIC DISEASES” (The Regents of the University of California, priority 2021, published 2024).

Experiments:
[1] = test system: human motor neurons (MNs); experiment: MTT viability and Annexin V apoptosis assays of human motor neurons exposed to H2O2; assay type: cell-based
Experimental: The process of MNP and MN differentiation was as published (61). Briefly, hPSCs were detached by 0.5 mM EDTA and split 1:10 on Matrigel-coated plates (1:50 dilution). After one day, the Essential 8 was changed to neural inducing medium containing neural basal medium (NBM) plus 3 μM CHIR99021 (Tocris), 2 μM LDN-193189 (Tocris) and 3 μM SB431542 (Stemgent). The NBM is composed of DMEM/F12, Neurobasal medium (FisherScientific) at 1:1, N2, B27, 0.1 mM ascorbic acid (Millipore-Sigma), 1× Glutamax and 1× penicillin/streptomycin (all from Invitrogen). The inducing medium was maintained for 5 days and changed every other day. On day 5, the cultured cells were split at 1:6 with Accutase and cultured in NBM containing 3 μM CHIR99021, 2 μM SB431542, 0.1 μM retinoic acid (RA, Stemgent) and 0.5 μM purmorphamine (Pur, Stemgent). […]
[…] A SpectraMax iD3 Multi-Mode Microplate Reader (Molecular Devices) was used for measuring fluorescence intensity (560/590 nm).
The apoptotic assay of fibroblasts was by Annexin V-CF Blue/7-AAD Apoptosis Detection Kit (ab214663, Abcam) according to the manufacturer's protocol. […] Finally, the stained samples were analyzed on a Guava Easycyte Flowcytometer (Millipore-Sigma) at an excitation wavelength of 488 nm and emission wavelengths of 525 and 625 nm. […] The stained plate was analyzed on a SpectraMax iD3 Multi-Mode Microplate Reader (495/525 nm). […]

IMR90 fibroblasts = experiment: MTT viability assay of IMR90 fibroblasts (H2O2, hESC-CM, dF-CM); assay type: cell-based; conditions: 200 μM H2O2
From the text: hESC conditioned medium was previously shown to enhance myogenic and neurogenic responses of tissue precursor cells (43, 44), but the effects on cell viability were less studied. We decided to explore a protective role of hESC conditioned medium (hESC-CM) when cells experience oxidative damage, which is physiologically and clinically relevant in a number of human diseases (56, 57). To set up this experimental system, we first performed dose response studies in IMR90 fibroblasts to varying concentrations of H2O2 and of hESC-CM using an MTT assay.
We then tested eight experimental cohorts, e.g., 200 μM H2O2 alone or in combination with 30% hESC-CM or CM from hESC-derived fibroblasts (dF-CM) (43) and controls for the various culture medium formulations (FIG. 1, panel C).
When cells were grown to 70% confluence, they were subcultured at 1/5 dilution for later passaging.
After H2O2 and/or CM or CM-derived factors treatment, the number of viable cells was determined by a resorufin based assay using the commercially available CellTiter-Blue® cell viability assay (G8080, Promega), as per the manufacturer's protocol. MNs were cultured in a 96-well plate at a cell density of 2×10^4 and treated with H2O2 and/or CMs for 24 hours before performing the viability assay. A SpectraMax iD3 Multi-Mode Microplate Reader (Molecular Devices) was used for measuring fluorescence intensity (560/590 nm). […]

OCT4, NANOG = experiment: Pluripotency marker expression (qRT-PCR) in iPSCs after epigenetic modifiers; assay type: cell-based, human; conditions: iPSCs treated 3 days: 5 μM Nanomycin A, 10 μM LSD1 inhibitor, 5 μM 5-Azacytidine, 10 μM GSK126
Experimental: Total RNA was extracted using the RNeasy mini kit (Qiagen), and the SuperScript III First-Strand Synthesis System (Invitrogen) was used to synthesize cDNA according to the manufacturer's instructions. Real-time PCR was performed on a Bio-Rad iQ5 real-time PCR machine.
(§1) For the collection of CM, separate cultures of hiPSCs were set up for 3 days with one of the following small molecules: 5 μM Nanomycin A (A8191, Apexbio), 10 μM LSD1 inhibitor (489476, Millipore-Sigma), 5 μM 5-Azacytidine (C832A53, Thomas Scientific), and 10 μM GSK126 (67-905, Tocris). After 3 days of treatment, CM was collected (without the inhibitors) using the same protocol as described above.

ALS-MNPs = experiment: Viability (MTT) and apoptosis (Annexin V) of H2O2 exposed ALS-MNPs, incl. epigenetic inhibitors screen; assay type: cell-based, human
Experimental: […] MNs were cultured in a 96-well plate at a cell density of 2×10^4 and treated with H2O2 and/or CMs for 24 hours before performing the viability assay. A SpectraMax iD3 Multi-Mode Microplate Reader (Molecular Devices) was used for measuring fluorescence intensity (560/590 nm).
The apoptosis assay of fibroblasts was by Annexin V-CF Blue/7-AAD Apoptosis Detection Kit (ab214663, Abcam) according to the manufacturer's protocol. Briefly, cells were detached using 0.05% trypsin and washed twice with PBS. Then, samples were resuspended in 1× annexin-binding buffer and incubated with 5 μL Annexin V-FITC and 5 μL 7-amino-actinomycin D (7AAD) for 15 min at 37° C., avoiding light. Finally, the stained samples were analyzed on a Guava Easycyte Flowcytometer (Millipore-Sigma) at an excitation wavelength of 488 nm and emission filters of 525 and 625 nm. For MNs, the apoptotic assay was conducted on two different markers, FITC-conjugated-annexinV (ab201540) or Cleaved caspase 3 (9669S). For annexinV detection, MNs in 96-well plates were washed twice with PBS. Then, 100 μL Annexin V binding buffer was added with 5 μL Annexin V-FITC for 5 min incubation at 37° C., avoiding light. The stained plate was analyzed on a SpectraMax iD3 Multi-Mode Microplate Reader (490/525 nm). For the Cleaved caspase 3, the immunofluorescence protocol was used.
as §1
Based on the absence of neuroprotective activity in the differentiated progeny of iPSCs, we decided to confirm and mechanistically extrapolate the relationship between the protective effects and pluripotency. […] To follow on the requirement for pluripotency, we employed a screen with inhibitors of pluripotency that modify the epigenetic states of iPSCs. […]

[2] = iPSCs treated 3 days with 10 μM GSK126 before CM collection, N=4, P<0.01

OO [H2O2]
Viability (MTT) of human MNs with H2O2 alone or co-treated with CM or fraction ([1]; H2O2, 200 μg/ml HBPs, unfractionated CM, N=4): 0.49±0.01
Motor neuron viability after H2O2 treatment ([1]; human MNs, 200 μM H2O2): below 50%
Cell viability (MTT) after H2O2 treatment (IMR90 fibroblasts): below 50%
Cell viability after H2O2 treatment, normalized to the values at the 0 concentration (IMR90 fibroblasts): below 0.5

C[C@@H]1O[C@@H](CC(=O)O)CC2=C1C(=O)c1c(O)cccc1C2=O [NaA, Nanomycin A]
Expression of OCT4 compared to the untreated groups (WTC11 and CS07) (OCT4, NANOG): significantly decreased

CC[C@H](C)n1cc(C)c2c(C(=O)NCc3c(C)cc(C)[nH]c3=O)cc(-c3ccc(N4CCNCC4)nc3)cc21 [GSK126]
Effect of treating ALS iPSCs with the epigenetic inhibitor on the neuroprotective activity of their CM (ALS-MNPs; MNPs exposed to H2O2, pre-treated with CM): significantly reduced the neuroprotective activity
Apoptosis (Annexin V) of H2O2 exposed ALS-MNPs treated with CM of ALS iPSCs without or with inhibitor pre-treatment (ALS-MNPs; [2]): 2.65±0.23
Viability (MTT) of H2O2 exposed ALS-MNPs treated with CM of ALS iPSCs without or with inhibitor pre-treatment (ALS-MNPs; [2]): 0.47±0.02
Expression of OCT4 compared to the untreated groups (WTC11 and CS07) (OCT4, NANOG): the decrease was not significant

Nc1ncn([C@@H]2O[C@H](CO)[C@@H](O)[C@H]2O)c(=O)n1 [5Aza, 5-Azacytidine]
Expression of OCT4 compared to the untreated groups (WTC11 and CS07) (OCT4, NANOG): significantly decreased
